What was measured:
[1] = target: T1, human α1H T-type channels (Homo sapiens, UniProt O95180); test: T-type calcium channel block, whole cell patch clamp in HEK cells (α1H); type: cell-based; conditions: HEK cells, patch clamp, mainly non-inactivated protocol; values above 10 μM shown as 10 μM; read-out: T-type Calcium Channel Block α1H IC50
T1 construct: expressed in transfected cells; host or cells: HEK 293

[2] = target: T2, human α1G T-type channels (Homo sapiens, UniProt O43497); test: T-type calcium channel block, whole cell patch clamp in HEK cells (α1G); type: cell-based; conditions: HEK cells, patch clamp, mainly non-inactivated protocol; values above 10 μM shown as 10 μM, below 0.30 μM shown as 0.30 μM; read-out: T-type Calcium Channel Block α1G IC50
T2 construct: expressed in transfected cells; host or cells: HEK 293
T2 sequence (O43497 whole entry): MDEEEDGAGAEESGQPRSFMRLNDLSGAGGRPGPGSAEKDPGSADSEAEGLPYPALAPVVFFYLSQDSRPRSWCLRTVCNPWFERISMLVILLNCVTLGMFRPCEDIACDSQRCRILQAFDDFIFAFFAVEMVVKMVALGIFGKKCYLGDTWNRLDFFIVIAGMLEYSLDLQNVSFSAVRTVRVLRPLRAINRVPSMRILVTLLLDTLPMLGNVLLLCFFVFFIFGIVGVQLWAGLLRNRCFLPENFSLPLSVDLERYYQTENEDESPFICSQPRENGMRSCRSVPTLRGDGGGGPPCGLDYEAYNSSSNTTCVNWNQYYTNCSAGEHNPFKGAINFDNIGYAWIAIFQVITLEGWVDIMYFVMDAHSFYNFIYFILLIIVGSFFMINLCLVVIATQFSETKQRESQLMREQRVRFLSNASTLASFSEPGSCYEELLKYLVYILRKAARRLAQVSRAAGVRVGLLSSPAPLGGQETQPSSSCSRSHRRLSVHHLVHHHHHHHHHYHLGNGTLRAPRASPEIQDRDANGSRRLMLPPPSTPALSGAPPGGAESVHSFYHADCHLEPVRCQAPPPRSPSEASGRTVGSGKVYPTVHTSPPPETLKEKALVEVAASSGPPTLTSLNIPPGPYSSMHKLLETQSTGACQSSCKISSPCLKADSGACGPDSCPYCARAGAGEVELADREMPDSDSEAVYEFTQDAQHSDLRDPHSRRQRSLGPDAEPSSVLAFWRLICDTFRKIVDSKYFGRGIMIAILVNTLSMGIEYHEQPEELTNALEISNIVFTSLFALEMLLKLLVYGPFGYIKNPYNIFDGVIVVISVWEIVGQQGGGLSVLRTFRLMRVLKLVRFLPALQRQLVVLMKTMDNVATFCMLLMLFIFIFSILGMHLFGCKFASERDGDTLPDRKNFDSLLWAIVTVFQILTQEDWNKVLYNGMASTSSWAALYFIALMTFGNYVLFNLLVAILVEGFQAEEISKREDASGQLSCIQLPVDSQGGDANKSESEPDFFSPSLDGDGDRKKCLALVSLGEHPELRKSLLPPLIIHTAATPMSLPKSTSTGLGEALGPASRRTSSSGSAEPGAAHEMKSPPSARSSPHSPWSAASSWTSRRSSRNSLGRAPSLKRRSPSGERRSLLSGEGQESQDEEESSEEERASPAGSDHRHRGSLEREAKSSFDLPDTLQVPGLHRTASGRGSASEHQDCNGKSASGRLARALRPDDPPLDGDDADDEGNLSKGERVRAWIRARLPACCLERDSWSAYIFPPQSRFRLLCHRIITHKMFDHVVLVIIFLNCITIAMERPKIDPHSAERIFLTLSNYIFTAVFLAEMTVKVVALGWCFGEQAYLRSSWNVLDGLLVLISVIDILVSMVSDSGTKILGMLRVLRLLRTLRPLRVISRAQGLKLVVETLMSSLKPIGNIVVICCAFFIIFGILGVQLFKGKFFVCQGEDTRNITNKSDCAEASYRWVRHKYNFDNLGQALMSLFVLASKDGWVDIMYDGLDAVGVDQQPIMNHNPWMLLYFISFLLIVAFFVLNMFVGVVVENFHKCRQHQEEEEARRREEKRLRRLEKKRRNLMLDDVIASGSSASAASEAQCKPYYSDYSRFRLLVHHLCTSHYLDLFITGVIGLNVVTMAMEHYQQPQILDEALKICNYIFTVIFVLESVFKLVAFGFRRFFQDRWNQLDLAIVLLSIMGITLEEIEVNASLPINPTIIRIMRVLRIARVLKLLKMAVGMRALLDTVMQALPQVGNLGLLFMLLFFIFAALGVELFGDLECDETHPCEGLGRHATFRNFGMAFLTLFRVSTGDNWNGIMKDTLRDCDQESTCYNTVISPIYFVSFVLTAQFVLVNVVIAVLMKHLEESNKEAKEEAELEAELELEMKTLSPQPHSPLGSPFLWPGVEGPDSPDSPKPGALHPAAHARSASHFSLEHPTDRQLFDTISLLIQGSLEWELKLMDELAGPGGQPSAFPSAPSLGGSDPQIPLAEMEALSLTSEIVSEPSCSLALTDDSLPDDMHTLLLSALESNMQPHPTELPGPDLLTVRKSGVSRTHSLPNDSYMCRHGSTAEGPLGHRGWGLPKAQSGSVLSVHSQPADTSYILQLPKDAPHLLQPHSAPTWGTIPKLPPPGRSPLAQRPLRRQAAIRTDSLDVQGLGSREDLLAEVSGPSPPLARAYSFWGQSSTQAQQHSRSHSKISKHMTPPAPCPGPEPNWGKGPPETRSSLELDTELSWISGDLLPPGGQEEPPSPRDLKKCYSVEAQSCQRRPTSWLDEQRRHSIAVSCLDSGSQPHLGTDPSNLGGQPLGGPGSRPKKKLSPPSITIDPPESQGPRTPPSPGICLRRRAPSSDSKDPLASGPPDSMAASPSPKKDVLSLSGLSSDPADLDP

T1 sequence (O95180 whole entry): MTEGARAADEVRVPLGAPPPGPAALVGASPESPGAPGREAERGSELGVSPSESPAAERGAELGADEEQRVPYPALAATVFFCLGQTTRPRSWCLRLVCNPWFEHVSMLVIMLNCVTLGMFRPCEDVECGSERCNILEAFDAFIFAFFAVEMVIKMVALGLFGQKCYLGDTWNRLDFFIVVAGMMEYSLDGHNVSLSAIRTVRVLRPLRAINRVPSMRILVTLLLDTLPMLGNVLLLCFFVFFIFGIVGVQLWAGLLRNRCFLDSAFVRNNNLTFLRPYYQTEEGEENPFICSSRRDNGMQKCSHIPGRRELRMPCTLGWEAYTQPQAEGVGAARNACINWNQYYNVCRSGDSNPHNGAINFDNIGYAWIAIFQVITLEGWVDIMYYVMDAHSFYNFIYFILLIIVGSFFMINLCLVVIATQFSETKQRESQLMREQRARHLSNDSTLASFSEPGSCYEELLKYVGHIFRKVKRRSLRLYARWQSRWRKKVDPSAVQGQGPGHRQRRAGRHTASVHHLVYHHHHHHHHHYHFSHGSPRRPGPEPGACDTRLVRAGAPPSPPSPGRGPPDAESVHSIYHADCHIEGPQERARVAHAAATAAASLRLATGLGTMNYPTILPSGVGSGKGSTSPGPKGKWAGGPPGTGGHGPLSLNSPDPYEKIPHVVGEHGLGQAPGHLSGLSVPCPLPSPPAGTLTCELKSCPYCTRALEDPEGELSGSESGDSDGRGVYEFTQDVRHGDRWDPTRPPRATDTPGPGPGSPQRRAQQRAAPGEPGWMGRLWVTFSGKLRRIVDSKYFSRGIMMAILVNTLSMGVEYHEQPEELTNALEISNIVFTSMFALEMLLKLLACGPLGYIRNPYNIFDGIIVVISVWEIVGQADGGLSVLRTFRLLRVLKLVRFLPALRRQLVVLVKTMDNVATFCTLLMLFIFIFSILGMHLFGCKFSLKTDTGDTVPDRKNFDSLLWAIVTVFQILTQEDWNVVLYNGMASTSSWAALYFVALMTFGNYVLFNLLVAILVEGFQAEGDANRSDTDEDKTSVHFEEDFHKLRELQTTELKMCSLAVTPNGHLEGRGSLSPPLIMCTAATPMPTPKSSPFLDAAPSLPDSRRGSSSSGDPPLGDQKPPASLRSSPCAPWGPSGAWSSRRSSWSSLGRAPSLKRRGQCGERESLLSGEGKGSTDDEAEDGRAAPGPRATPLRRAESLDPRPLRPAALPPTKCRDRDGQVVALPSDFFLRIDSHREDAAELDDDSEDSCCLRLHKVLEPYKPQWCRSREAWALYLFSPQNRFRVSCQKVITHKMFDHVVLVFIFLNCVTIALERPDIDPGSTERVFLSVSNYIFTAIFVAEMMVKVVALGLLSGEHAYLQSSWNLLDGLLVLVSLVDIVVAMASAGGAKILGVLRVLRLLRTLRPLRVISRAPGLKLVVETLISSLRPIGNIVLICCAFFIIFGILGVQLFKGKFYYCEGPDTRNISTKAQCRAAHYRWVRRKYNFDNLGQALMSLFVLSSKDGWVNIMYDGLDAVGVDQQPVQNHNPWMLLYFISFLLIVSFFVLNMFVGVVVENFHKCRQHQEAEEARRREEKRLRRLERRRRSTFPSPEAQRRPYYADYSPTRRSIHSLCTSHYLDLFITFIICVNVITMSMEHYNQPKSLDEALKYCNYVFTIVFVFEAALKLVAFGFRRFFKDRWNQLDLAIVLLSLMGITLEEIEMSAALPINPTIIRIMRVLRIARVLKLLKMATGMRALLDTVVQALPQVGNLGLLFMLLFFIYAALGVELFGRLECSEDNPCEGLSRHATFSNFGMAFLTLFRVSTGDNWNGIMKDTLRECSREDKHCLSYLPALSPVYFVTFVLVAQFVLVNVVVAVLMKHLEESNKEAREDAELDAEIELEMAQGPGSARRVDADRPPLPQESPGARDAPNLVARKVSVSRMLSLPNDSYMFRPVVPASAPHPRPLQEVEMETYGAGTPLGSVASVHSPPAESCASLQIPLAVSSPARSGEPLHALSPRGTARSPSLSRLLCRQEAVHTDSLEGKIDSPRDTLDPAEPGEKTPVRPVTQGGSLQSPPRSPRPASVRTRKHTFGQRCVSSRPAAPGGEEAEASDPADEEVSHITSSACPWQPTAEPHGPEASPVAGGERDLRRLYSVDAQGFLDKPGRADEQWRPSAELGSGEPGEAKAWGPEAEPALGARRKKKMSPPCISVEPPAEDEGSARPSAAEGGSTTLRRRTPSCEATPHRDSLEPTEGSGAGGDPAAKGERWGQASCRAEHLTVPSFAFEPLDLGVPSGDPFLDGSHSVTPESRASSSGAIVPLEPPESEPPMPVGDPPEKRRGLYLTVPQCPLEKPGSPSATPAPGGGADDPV

| IC50 [1] | IC50 [2] | SMILES |
| --- | --- | --- |
| 1550 nM | 1030 nM | O=C(NCC1CCN(CCNS(=O)(=O)C(F)(F)F)CC1)c1ccc(C(F)(F)F)c(F)c1 [Compound 328, 3-fluoro-4-(trifluoromethyl)-N-((1-(2-(trifluoromethylsulfonamido)ethyl)piperidin-4-yl)methyl)benzamide] |
| 4050 nM | 3240 nM | O=C(NCC1CCN(CCNS(=O)(=O)C(F)(F)F)CC1)c1cc(F)cc(Cl)c1 [Compound 329, 3-chloro-5-fluoro-N-((1-(2-(trifluoromethylsulfonamido)ethyl)piperidin-4-yl)methyl)benzamide] |
| > 10000 nM | > 10000 nM | O=C(NCC1CCN(CCNS(=O)(=O)C(F)(F)F)CC1)c1cccc(Br)c1 [Compound 330, 3-bromo-N-((1-(2-(trifluoromethylsulfonamido)ethyl)piperidin-4-yl)methyl)benzamide] |
| > 10000 nM | > 10000 nM | Cc1cc(F)cc(C(=O)NCC2CCN(CCNS(=O)(=O)C(F)(F)F)CC2)c1 [Compound 331, 3-fluoro-5-methyl-N-((1-(2-(trifluoromethylsulfonamido)ethyl)piperidin-4-yl)methyl)benzamide] |
| 2420 nM | 800 nM | O=C(NCC1CCN(CCNS(=O)(=O)C2CC2)CC1)c1cc(Cl)sc1Cl [Compound 333, 2,5-dichloro-N-((1-(2-(cyclopropanesulfonamido)ethyl)piperidin-4-yl)methyl)thiophene-3-carboxamide] |
| 310 nM | 330 nM | CC(C)(F)C(=O)NCCN1CCC(CNC(=O)c2cc(C(F)(F)F)cc(C(F)(F)F)c2)CC1 [Compound 335, N-((1-(2-(2-fluoro-2-methylpropanamido)ethyl)piperidin-4-yl)methyl)-3,5-bis(trifluoromethyl) benzamide] |
| 1160 nM | 1750 nM | CC(C)(F)C(=O)NCCN1CCC(CNC(=O)c2cc(F)cc(C(F)(F)F)c2)CC1 [Compound 336, 3-fluoro-N-((1-(2-(2-fluoro-2-methylpropanamido)ethyl)piperidin-4-yl)methyl)-5-(trifluoromethyl)benzamide] |
| 370 nM | 270 nM | CC1(C(=O)NCCN2CCC(CNC(=O)c3cc(C(F)(F)F)cc(C(F)(F)F)c3)CC2)CC1 [Compound 337, N-((1-(2-(1-methylcyclopropanecarboxamido)ethyl)piperidin-4-yl)methyl)-3,5-bis(trifluoromethyl)benzamide] |
| 160 nM | < 300 nM | CC(C)(C(=O)NCCN1CCC(CNC(=O)c2cc(C(F)(F)F)cc(C(F)(F)F)c2)CC1)C(F)(F)F [Compound 338, N-((1-(2-(3,3,3-trifluoro-2,2-dimethylpropanamido)ethyl)piperidin-4-yl)methyl)-3,5-bis(trifluoromethyl) benzamide] |
| 130 nM | < 300 nM | CC(C)(C(=O)NCCN1CCC(CNC(=O)c2cc(F)cc(C(F)(F)F)c2)CC1)C(F)(F)F [Compound 339, 3-fluoro-N-((1-(2-(3,3,3-trifluoro-2,2-dimethylpropanamido)ethyl)piperidin-4-yl)methyl)-5-(trifluoromethyl)benzamide] |
| 120 nM | < 300 nM | O=C(NCC1CCN(CCNC(=O)C2(C(F)(F)F)CCCC2)CC1)c1cc(C(F)(F)F)cc(C(F)(F)F)c1 [Compound 340, 3,5-bis(trifluoromethyl)-N-((1-(2-(1-(trifluoromethyl)cyclopentanecarbox-amido)ethyl)piperidin-4-yl)methyl) benzamide] |
| 120 nM | < 300 nM | O=C(NCC1CCN(CCNC(=O)C2(C(F)(F)F)CCCC2)CC1)c1cc(F)cc(C(F)(F)F)c1 [Compound 341, 3-fluoro-5-(trifluoromethyl)-N-((1-(2-(1-(trifluoromethyl)cyclopentanecarbox-amido)ethyl)piperidin-4-yl)methyl) benzamide] |
| 70 nM | < 300 nM | O=C(NCC1CCN(CCNC(=O)C2(C(F)(F)F)CC2)CC1)c1cc(C(F)(F)F)cc(C(F)(F)F)c1 [Compound 342, 3,5-bis(trifluoromethyl)-N-((1-(2-(1-(trifluoromethyl)cyclopropanecarbox-amido)ethyl)piperidin-4-yl)methyl) benzamide] |
| 110 nM | < 300 nM | CCCNC(=O)CN1CCC(CNC(=O)c2cc(C(F)(F)F)cc(C(F)(F)F)c2)CC1 [Compound 345, N-((1-(2-oxo-2-(propylamino)ethyl)piperidin-4-yl)methyl)-3,5-bis(trifluoromethyl)benzamide] |
| 50 nM | < 300 nM | CCC(C)(C)NC(=O)CN1CCC(CNC(=O)c2cc(C(F)(F)F)cc(C(F)(F)F)c2)CC1 [Compound 346, N-((1-(2-oxo-2-(tert-pentylamino)ethyl)piperidin-4-yl)methyl)-3,5-bis(trifluoromethyl) benzamide] |
| 240 nM | < 300 nM | COCC(COC)NC(=O)CN1CCC(CNC(=O)c2cc(C(F)(F)F)cc(C(F)(F)F)c2)CC1 [Compound 347, N-((1-(2-(1,3-dimethoxypropan-2-ylamino)-2-oxoethyl)piperidin-4-yl)methyl)-3,5-bis(trifluoromethyl) benzamide] |
| 110 nM | < 300 nM | O=C(NCC1CCN(CC(=O)N2CC[C@H](C(F)(F)F)C2)CC1)c1cc(C(F)(F)F)cc(C(F)(F)F)c1 [Compound 348, (S)-N-((1-(2-oxo-2-(3-(trifluoromethyl)pyrrolidin-1-yl)ethyl)piperidin-4-yl)methyl)-3,5-bis(trifluoromethyl)benzamide] |
| 300 nM | < 300 nM | O=C(NCC1CCN(CC(=O)N2CCC(F)CC2)CC1)c1cc(C(F)(F)F)cc(C(F)(F)F)c1 [Compound 349, N-((1-(2-(4-fluoropiperidin-1-yl)-2-oxoethyl)piperidin-4-yl)methyl)-3,5-bis(trifluoromethyl)benzamide] |
| 750 nM | 910 nM | CC(C)NC(=O)CN1CCC(CNC(=O)c2cc(F)cc(C(F)(F)F)c2)CC1 [Compound 350, 3-fluoro-N-((1-(2-(isopropylamino)-2-oxoethyl)piperidin-4-yl)methyl)-5-(trifluoromethyl)benzamide] |
| 1300 nM | 1720 nM | CCCNC(=O)CN1CCC(CNC(=O)c2cc(F)cc(C(F)(F)F)c2)CC1 [Compound 351, 3-fluoro-N-((1-(2-oxo-2-(propylamino)ethyl)piperidin-4-yl)methyl)-5-(trifluoromethyl)benzamide] |
| 80 nM | < 300 nM | CC1(NC(=O)CN2CCC(CNC(=O)c3cc(F)cc(C(F)(F)F)c3)CC2)CCC1 [Compound 352, 3-fluoro-N-((1-(2-(1-methylcyclo-butylamino)-2-oxoethyl)piperidin-4-yl)methyl)-5-(trifluoromethyl) benzamide] |
| 60 nM | < 300 nM | CCC(C)(C)NC(=O)CN1CCC(CNC(=O)c2cc(F)cc(C(F)(F)F)c2)CC1 [Compound 353, 3-fluoro-N-((1-(2-oxo-2-(tert-pentylamino)ethyl)piperidin-4-yl)methyl)-5-(trifluoromethyl)benzamide] |
| 2140 nM | 1840 nM | COCC(COC)NC(=O)CN1CCC(CNC(=O)c2cc(F)cc(C(F)(F)F)c2)CC1 [Compound 354, N-((1-(2-(1,3-dimethoxypropan-2-ylamino)-2-oxoethyl)piperidin-4-yl)methyl)-3-fluoro-5-(trifluoromethyl) benzamide] |

From patent US8569344B2, “N-piperidinyl acetamide derivatives as calcium channel blockers” (Zalicus Pharmaceuticals Ltd., priority 2008, dated 2013)
